Reference: the supplement of paper PMC4862054

Experiments:
Test in all cases: normalised response (% of control), CellTiter-Glo; higher = more viable cells (100 = DMSO, 0 = benzethonium chloride kill control)
Conditions in all cases: incubation time: 72 h
[1] = tested on: CAL-148
Summary of the method: (§1)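 The table gives the normalised signal for a single concentration in each entry. Breast cancer cell lines were seeded (20 µl suspension) into 384-well plates holding compound at 5 concentrations in 10-fold steps over a compound-specific 10,000-fold range and incubated 72 h, then read for CellTox Green fluorescence (485/520 nm) and CellTiter-Glo luminescence. Normalisation on each plate used 0.1 % DMSO (100) and a positive kill control (0).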

[2] = tested on: DU-4475
Summary of the method: as §1

[3] = tested on: HCC1599
Summary of the method: as §1

[4] = tested on: Hs578T
Summary of the method: as §1

[5] = tested on: MDA-MB-468
Summary of the method: as §1

[6] = tested on: CAL-120
Summary of the method: as §1

[7] = tested on: SK-BR-3
Summary of the method: as §1

[8] = tested on: HCC1937
Summary of the method: as §1

[9] = tested on: MDA-MB-436
Summary of the method: as §1

[10] = tested on: CAL-51
Summary of the method: as §1

[11] = tested on: CAL-85-1
Summary of the method: as §1

[12] = tested on: HDQ-P1
Summary of the method: as §1

[13] = tested on: MCF-10A
Summary of the method: as §1

[14] = tested on: HCC1143
Summary of the method: as §1

[15] = tested on: BT-549
Summary of the method: as §1

[16] = tested on: MFM-223
Summary of the method: as §1

[17] = tested on: MDA-MB-231
Summary of the method: as §1

[18] = tested on: BT-474
Summary of the method: as §1

[19] = tested on: MDA-MB-453
Summary of the method: as §1

SMILES | normalised response [1] [%] | normalised response [2] [%] | normalised response [3] [%] | normalised response [4] [%] | normalised response [5] [%] | normalised response [6] [%] | normalised response [7] [%] | normalised response [8] [%] | normalised response [9] [%] | normalised response [10] [%] | normalised response [11] [%] | normalised response [12] [%] | normalised response [13] [%] | normalised response [14] [%] | normalised response [15] [%] | normalised response [16] [%] | normalised response [17] [%] | normalised response [18] [%] | normalised response [19] [%]
Cc1cn(-c2cc(NC(=O)c3ccc(C)c(Nc4nccc(-c5cccnc5)n4)c3)cc(C(F)(F)F)c2)cn1 [Nilotinib] (10 nM) | 92.7 | 106 | 104 | 94 | 98.8 | 88.6 | 105 | 96.5 | 94.1 | 85.8 | 100 | 93.5 | 104 | 96.5 | 103 | 97.3 | 91.2 | 100 | 103
Nc1ccn([C@@H]2O[C@H](CO)[C@@H](O)C2(F)F)c(=O)n1 [Gemcitabine] (1 nM) | 95.6 | 94 | 109 | 98.1 | 95.7 | 95.9 | – | 95.7 | 95.5 | 66 | 101 | 99.3 | 109 | 100 | 95 | 101 | 97.4 | 100 | 101
CN[C@@H](C)C(=O)N[C@H]1CN(C(=O)CC(C)C)CC[C@H]2CC[C@@H](C(=O)NC(c3ccccc3)c3ccccc3)N2C1=O [AT-406] (1 nM) | 98.3 | 98.2 | 104 | 95.1 | 98.3 | 98.4 | 105 | 101 | 108 | 125 | 96.8 | 99.9 | 108 | 109 | 106 | 101 | 98.3 | 101 | 103
O=C(O)CNC(=O)c1c(O)c2ccccc2n(Cc2ccccc2)c1=O [IOX-2] (5 nM) | 94.5 | 97.3 | 103 | 95 | 93.6 | 93.9 | 95.3 | 95 | 95.4 | 99.5 | 95.9 | 100 | 106 | 94.8 | 95.9 | 92.5 | 94.5 | 99.3 | 104
CCn1c(C(=O)N(C2CC2)C2CC2)cc2c3c(ncn3C)c(Nc3cc(C)n(C)n3)nc21 (10 nM) | 107 | 96.9 | 82.5 | 105 | 106 | 97.3 | – | 99.5 | 103 | 85.3 | 101 | 95.6 | 99.8 | 104 | 95.2 | 102 | 100 | 93.5 | 93.3
CN(C)C(=N)NC(=N)N [Metformin] (100 nM) | 93.7 | 93 | 97.6 | 94 | 88 | 108 | – | 99.6 | 95.4 | 117 | 95.7 | 99.4 | 77.5 | 101 | 99 | 87.2 | 102 | 91.7 | 76.8
CC(C)n1cnc2c(NCCc3ccc(O)cc3)nc(-c3csc4ccccc34)nc21 [StemRegenin 1] (10 nM) | 109 | 100 | 79.5 | 109 | 97.3 | 97.4 | 98.3 | 96.3 | 96.1 | 68.8 | 96.9 | 99.6 | 105 | 106 | 92.2 | 102 | 97.5 | 105 | 103
CO[C@@]12[C@H](COC(N)=O)C3=C(C(=O)C(C)=C(N)C3=O)N1C[C@@H]1N[C@@H]12 [Mitomycin C] (10 nM) | 86.7 | 98.9 | 82.3 | 98.7 | 92.8 | 96.9 | 94.4 | 101 | 91 | 105 | 96.5 | 96.7 | 96.3 | 96.3 | 98.3 | 97.2 | 97 | 92.7 | 89
O=C(CCCCCCC(=O)Nc1ccccc1)NO [Vorinostat] (10 nM) | 98.6 | 105 | 102 | 98.1 | 106 | 87.9 | – | 101 | 105 | 117 | 105 | 94.6 | 102 | 98.4 | 106 | 101 | 98.2 | 97.6 | 90.3
O=[N+]([O-])c1ccc2c(c1)S(=O)(=O)C=C2 [Stattic] (50 nM) | 103 | 99.9 | 110 | 103 | 96.9 | 98.9 | – | 102 | 96.4 | 107 | 96.5 | 100 | 102 | 106 | 94.6 | 102 | 101 | 98.6 | 97.1
CCN(CC)CCCC(C)Nc1ccnc2cc(Cl)ccc12 (stereo unspecified) [Chloroquine] (100 nM) | 88.6 | 92.9 | 46 | 102 | 91.7 | 98.8 | 88.3 | 103 | 103 | 71.1 | 94.5 | 102 | 93.7 | 103 | 103 | 100 | 96.7 | 99.9 | 91.5
CN(Cc1cnc2nc(N)nc(N)c2n1)c1ccc(C(=O)N[C@@H](CCC(=O)O)C(=O)O)cc1 [Methotrexate] (50 nM) | 109 | 88.4 | 51.9 | 47.6 | 92.8 | 32.5 | 74.7 | 33 | 86.1 | 63.7 | 76.7 | 35.5 | 111 | 84.5 | 100 | 108 | 100 | 101 | 114
Cc1cc(Nc2nc(N[C@@H](C)c3ncc(F)cn3)ncc2Cl)[nH]n1 [AZD1480] (1 nM) | 89.7 | 102 | 102 | 99.7 | 98.1 | 98 | 118 | 96.4 | 101 | 113 | 98.4 | 96.6 | 97.1 | 95.7 | 92.5 | 95.1 | 99.7 | 102 | 103
O=C(O)CNC(=O)c1c(O)c2ccccc2n(Cc2ccccc2)c1=O [IOX-2] (50 nM) | 98.7 | 95.1 | 94.1 | 102 | 92.9 | 98.1 | – | 93.6 | 96.9 | 88 | 97.1 | 95.7 | 103 | 94.5 | 93.9 | 104 | 99.5 | 96.9 | 86.3
CC[C@H](CO)Nc1nc(NCc2ccccc2)c2ncn(C(C)C)c2n1 [Seliciclib] (10 nM) | 110 | 103 | 103 | 105 | 98.9 | 91.9 | – | 104 | 110 | 113 | 108 | 94.5 | 107 | 98.7 | 99.9 | 101 | 104 | 102 | 104
COc1ccc(S(=O)(=O)Nc2cccnc2Nc2ccc(O)cc2)cc1 [ABT-751] (10 nM) | 93.6 | 102 | 124 | 93.8 | 98.2 | 101 | – | 97.5 | 108 | 117 | 97.5 | 98.5 | 101 | 106 | 95.8 | 96.7 | 100 | 101 | 105
CC1(COc2ccc3c(c2)ncn3-c2ccc3cccc(N4CCC(N)CC4)c3n2)COC1 [Crenolanib] (10 nM) | 110 | 103 | 96.2 | 98.7 | 102 | 97.8 | – | 104 | 94.8 | 90.6 | 99.2 | 103 | 106 | 105 | 95.6 | 108 | 106 | 105 | 94.6
CC(C)(C)c1nc(-c2cccc(NS(=O)(=O)c3c(F)cccc3F)c2F)c(-c2ccnc(N)n2)s1 [Dabrafenib] (2.5 nM) | 112 | 104 | 99.8 | 103 | 105 | 98.5 | – | 98.4 | 101 | 109 | 99 | 105 | 112 | 105 | 99.1 | 101 | 102 | 101 | 111
C/C(=C\c1csc(C)n1)[C@@H]1C[C@@H]2O[C@]2(C)CCC[C@H](C)[C@H](O)[C@@H](C)C(=O)C(C)(C)[C@@H](O)CC(=O)N1 [Ixabepilone] (1 nM) | 102 | 102 | 85.5 | 105 | 104 | 100 | – | 97.6 | 99.3 | 129 | 99.8 | 98.5 | 103 | 98.1 | 95.5 | 106 | 101 | 106 | 107
CCNC(=O)CCC/C=C\C[C@@H]1[C@@H](/C=C/[C@@H](O)CCc2ccccc2)[C@H](O)C[C@@H]1O [Bimatoprost] (5.5 nM) | 92.8 | 99.5 | 96.9 | 98.4 | 96.5 | 93.1 | – | 96 | 102 | 106 | 96.1 | 94.5 | 96.4 | 99.4 | 91.7 | 96.1 | 101 | 96.6 | 96.8
CC(=O)[C@]1(O)Cc2c(O)c3c(c(O)c2[C@@H](O[C@H]2C[C@H](N)[C@H](O)[C@H](C)O2)C1)C(=O)c1ccccc1C3=O [Idarubicin] (1 nM) | 116 | 101 | 91.1 | 99.5 | 97.7 | 104 | – | 99.9 | 113 | 91.5 | 103 | 99.7 | 105 | 107 | 90.5 | 109 | 109 | 111 | 101
